Species: Rattus norvegicus
Experiment: DrugMatrix - Regimen: Daily Repeat
Assay type: toxicity, organism-based, Sprague-Dawley
Parameters: regimen Daily Repeat, gender Male, age 6-8 weeks
Conditions: in vivo, po, route oral GAVAGE, vehicle .5 % CMC; for ABSOLUTE BASOPHIL / ABSOLUTE EOSINOPHIL / ABSOLUTE LYMPHOCYTE / ABSOLUTE MONOCYTE / ABSOLUTE SEGMENTED NEUTROPHIL / BASOPHIL / EOSINOPHIL / ERYTHROCYTE COUNT / HEMATOCRIT / HEMOGLOBIN / LEUKOCYTE COUNT / LYMPHOCYTE / MEAN CORPUSCULAR HEMOGLOBIN / MEAN CORPUSCULAR HEMOGLOBIN CONCENTRATION / MEAN CORPUSCULAR VOLUME / MONOCYTE / NEUTROPHIL / NUCLEATED RED BLOOD CELLS / PLATELET COUNT: tissue Blood; for ALANINE AMINOTRANSFERASE / ALBUMIN / ALKALINE PHOSPHATASE / ASPARTATE AMINOTRANSFERASE / BLOOD UREA NITROGEN / CARBON DIOXIDE / CHLORIDE / CHOLESTEROL / CREATINE PHOSPHOKINASE / CREATININE / GLUCOSE / LACTATE DEHYDROGENASE / LIPASE / PHOSPHORUS / POTASSIUM / SODIUM / TOTAL BILIRUBIN / TOTAL PROTEIN / URIC ACID: tissue Plasma
[1] = 10 mg/kg, 120 h, dose level Low, time 5 day
[2] = 63 mg/kg, 72 h, dose level High, time 3 day
[3] = 63 mg/kg, 120 h, dose level High, time 5 day

## COc1c(C)c2c(c(O)c1C/C=C(\C)CCC(=O)OCCN1CCOCC1)C(=O)OC2 [MYCOPHENOLATE MOFETIL]
[1]
  ABSOLUTE BASOPHIL: 0 CELLS/uL
  ABSOLUTE EOSINOPHIL: 90 CELLS/uL
  ABSOLUTE LYMPHOCYTE: 13218.67 CELLS/uL
  ABSOLUTE MONOCYTE: 116.67 CELLS/uL
  ABSOLUTE SEGMENTED NEUTROPHIL: 1408 CELLS/uL
  BASOPHIL: 0%
  EOSINOPHIL: 0.67%
  ERYTHROCYTE COUNT: 5.48 x10E6/uL
  HEMATOCRIT: 34.27%
  HEMOGLOBIN: 13.7 G/DL
  LEUKOCYTE COUNT: 14.83 x10E3/uL
  LYMPHOCYTE: 89.33%
  MEAN CORPUSCULAR HEMOGLOBIN: 25 pg
  MEAN CORPUSCULAR HEMOGLOBIN CONCENTRATION: 40.03 G/DL
  MEAN CORPUSCULAR VOLUME: 62.53 fL
  MONOCYTE: 0.67%
  NEUTROPHIL: 9.33%
  NUCLEATED RED BLOOD CELLS: 0 /100WBC
  PLATELET COUNT: 1214 x10E3/uL
  ALANINE AMINOTRANSFERASE: 55.67 u/L
  ALBUMIN: 4.17 G/DL
  ALKALINE PHOSPHATASE: 364.33 u/L
  ASPARTATE AMINOTRANSFERASE: 99.67 u/L
  BLOOD UREA NITROGEN: 13.67 mg/dL
  CARBON DIOXIDE: 31.33 mmol/L
  CHLORIDE: 102.67 MEQ/L
  CHOLESTEROL: 61.67 mg/dL
  CREATINE PHOSPHOKINASE: 341.67 u/L
  CREATININE: 0.2 mg/dL
  GLUCOSE: 141 mg/dL
  LACTATE DEHYDROGENASE: 409.33 u/L
  LIPASE: 9.67 u/L
  PHOSPHORUS: 11.87 mg/dL
  POTASSIUM: 6.19 MEQ/L
  SODIUM: 144.83 MEQ/L
  TOTAL BILIRUBIN: 0.1 mg/dL
  TOTAL PROTEIN: 5.8 G/DL
  URIC ACID: 1.37 mg/dL
[2]
  ABSOLUTE BASOPHIL: 0 CELLS/uL
  ABSOLUTE EOSINOPHIL: 0 CELLS/uL
  ABSOLUTE LYMPHOCYTE: 8638 CELLS/uL
  ABSOLUTE MONOCYTE: 62 CELLS/uL
  ABSOLUTE SEGMENTED NEUTROPHIL: 300 CELLS/uL
  BASOPHIL: 0%
  EOSINOPHIL: 0%
  ERYTHROCYTE COUNT: 4.81 x10E6/uL
  HEMATOCRIT: 32.3%
  HEMOGLOBIN: 12.6 G/DL
  LEUKOCYTE COUNT: 9 x10E3/uL
  LYMPHOCYTE: 96%
  MEAN CORPUSCULAR HEMOGLOBIN: 26.2 pg
  MEAN CORPUSCULAR HEMOGLOBIN CONCENTRATION: 39 G/DL
  MEAN CORPUSCULAR VOLUME: 67.17 fL
  MONOCYTE: 0.67%
  NEUTROPHIL: 3.33%
  NUCLEATED RED BLOOD CELLS: 0.33 /100WBC
  PLATELET COUNT: 1141.33 x10E3/uL
  ALANINE AMINOTRANSFERASE: 32.67 u/L
  ALBUMIN: 4.13 G/DL
  ALKALINE PHOSPHATASE: 373.33 u/L
  ASPARTATE AMINOTRANSFERASE: 70.33 u/L
  BLOOD UREA NITROGEN: 14.33 mg/dL
  CARBON DIOXIDE: 28.67 mmol/L
  CHLORIDE: 102.33 MEQ/L
  CHOLESTEROL: 78.67 mg/dL
  CREATINE PHOSPHOKINASE: 199.67 u/L
  CREATININE: 0.16 mg/dL
  GLUCOSE: 161.67 mg/dL
  LACTATE DEHYDROGENASE: 310.33 u/L
  LIPASE: 9.67 u/L
  PHOSPHORUS: 11.63 mg/dL
  POTASSIUM: 6.25 MEQ/L
  SODIUM: 143.47 MEQ/L
  TOTAL BILIRUBIN: 0.13 mg/dL
  TOTAL PROTEIN: 5.6 G/DL
  URIC ACID: 1.1 mg/dL
[3]
  ABSOLUTE BASOPHIL: 0 CELLS/uL
  ABSOLUTE EOSINOPHIL: 45.67 CELLS/uL
  ABSOLUTE LYMPHOCYTE: 11569 CELLS/uL
  ABSOLUTE MONOCYTE: 81.67 CELLS/uL
  ABSOLUTE SEGMENTED NEUTROPHIL: 1037 CELLS/uL
  BASOPHIL: 0%
  EOSINOPHIL: 0.33%
  ERYTHROCYTE COUNT: 4.9 x10E6/uL
  HEMATOCRIT: 29.73%
  HEMOGLOBIN: 12.17 G/DL
  LEUKOCYTE COUNT: 12.73 x10E3/uL
  LYMPHOCYTE: 91%
  MEAN CORPUSCULAR HEMOGLOBIN: 24.83 pg
  MEAN CORPUSCULAR HEMOGLOBIN CONCENTRATION: 40.93 G/DL
  MEAN CORPUSCULAR VOLUME: 60.7 fL
  MONOCYTE: 0.67%
  NEUTROPHIL: 8%
  NUCLEATED RED BLOOD CELLS: 0 /100WBC
  PLATELET COUNT: 1576 x10E3/uL
  ALANINE AMINOTRANSFERASE: 40.33 u/L
  ALBUMIN: 4.33 G/DL
  ALKALINE PHOSPHATASE: 290 u/L
  ASPARTATE AMINOTRANSFERASE: 92.67 u/L
  BLOOD UREA NITROGEN: 17.33 mg/dL
  CARBON DIOXIDE: 27.33 mmol/L
  CHLORIDE: 101 MEQ/L
  CHOLESTEROL: 76.67 mg/dL
  CREATINE PHOSPHOKINASE: 208.67 u/L
  CREATININE: 0.15 mg/dL
  GLUCOSE: 189.33 mg/dL
  LACTATE DEHYDROGENASE: 215.33 u/L
  LIPASE: 7 u/L
  PHOSPHORUS: 12.23 mg/dL
  POTASSIUM: 5.8 MEQ/L
  SODIUM: 145 MEQ/L
  TOTAL BILIRUBIN: 0.2 mg/dL
  TOTAL PROTEIN: 6.07 G/DL
  URIC ACID: 1.83 mg/dL

From ChEMBL document CHEMBL3885881, “DrugMatrix”
